Results taken from PubChem BioAssay AID1963449 (Molecular Pharmacology Branch, DTP, NCI, 2024).

System: 596521-263-R-J1-PDC complex spheroid growth
Experiment: Anticancer human tumor 596521-263-R-J1-PDC patient-derived soft tissue sarcoma cell line growth inhibition [Asc]
Details: for IC50: curve of first compound; for viability, T/C: stronger effect = lower value
Outline: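 Spheroid model: tumor line + HUVEC + hMSC. Single agents and combinations; top conc. at/near clinical Cmax (10 microM if undetermined), half-log dilutions. DMSO stocks at 800-fold test concentration.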
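Note: spheroids exposed to compounds for 7 days.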

C#Cc1c(F)ccc2cc(O)cc(-c3ncc4c(N5CC6CCC(C5)N6)nc(OCC56CCCN5CC(F)C6)nc4c3F)c12 (centres undefined) + CCN1C(C(=O)NC23CCC(C(=O)O)(CC2)CC3)C(c2cccc(Cl)c2F)C2(C(=O)Nc3cc(Cl)ccc32)C12CCCCC2
IC50 (second compound 0.00949 µM): > 10 µM | IC50 (second compound 0.03 µM): > 10 µM | IC50 (second compound 0.0949 µM): > 10 µM | IC50 (second compound 0.3 µM): > 10 µM | IC50 (second compound 0.949 µM): > 10 µM | IC50 (second compound 3 µM): > 10 µM | viability, T/C (second compound 0.00949 µM, first compound 0.0316 µM): 90.9% | viability, T/C (second compound 0.00949 µM, first compound 0.1 µM): 88.8% | viability, T/C (second compound 0.00949 µM, first compound 0.316 µM): 93.7% | viability, T/C (second compound 0.00949 µM, first compound 1 µM): 93.1% | viability, T/C (second compound 0.00949 µM, first compound 3.16 µM): 100% | viability, T/C (second compound 0.00949 µM, first compound 10 µM): 87.7% | viability, T/C (second compound 0.03 µM, first compound 0.0316 µM): 111% | viability, T/C (second compound 0.03 µM, first compound 0.1 µM): 101% | viability, T/C (second compound 0.03 µM, first compound 0.316 µM): 85.8% | viability, T/C (second compound 0.03 µM, first compound 1 µM): 96.2% | viability, T/C (second compound 0.03 µM, first compound 3.16 µM): 107% | viability, T/C (second compound 0.03 µM, first compound 10 µM): 80% | viability, T/C (second compound 0.0949 µM, first compound 0.0316 µM): 99.3% | viability, T/C (second compound 0.0949 µM, first compound 0.1 µM): 84.3% | viability, T/C (second compound 0.0949 µM, first compound 0.316 µM): 96.9% | viability, T/C (second compound 0.0949 µM, first compound 1 µM): 92% | viability, T/C (second compound 0.0949 µM, first compound 3.16 µM): 102% | viability, T/C (second compound 0.0949 µM, first compound 10 µM): 84.8% | viability, T/C (second compound 0.3 µM, first compound 0.0316 µM): 103% | viability, T/C (second compound 0.3 µM, first compound 0.1 µM): 98.9% | viability, T/C (second compound 0.3 µM, first compound 0.316 µM): 97.8% | viability, T/C (second compound 0.3 µM, first compound 1 µM): 100% | viability, T/C (second compound 0.3 µM, first compound 3.16 µM): 119% | viability, T/C (second compound 0.3 µM, first compound 10 µM): 85.7% | viability, T/C (second compound 0.949 µM, first compound 0.0316 µM): 92.4% | viability, T/C (second compound 0.949 µM, first compound 0.1 µM): 108% | viability, T/C (second compound 0.949 µM, first compound 0.316 µM): 103% | viability, T/C (second compound 0.949 µM, first compound 1 µM): 98.7% | viability, T/C (second compound 0.949 µM, first compound 3.16 µM): 87% | viability, T/C (second compound 0.949 µM, first compound 10 µM): 80.3% | viability, T/C (second compound 3 µM, first compound 0.0316 µM): 81.3% | viability, T/C (second compound 3 µM, first compound 0.1 µM): 85.7% | viability, T/C (second compound 3 µM, first compound 0.316 µM): 85.1% | viability, T/C (second compound 3 µM, first compound 1 µM): 88.8% | viability, T/C (second compound 3 µM, first compound 3.16 µM): 88.2% | viability, T/C (second compound 3 µM, first compound 10 µM): 78.9%

Cc1nc(N2CCC3(CC2)COC(C)C3N)c(CO)nc1Sc1ccnc(N)c1Cl (centres undefined) + Cc1c(S(C)(=O)=O)c(-c2cc(F)cc(N3CCN(c4ccc(NS(=O)(=O)c5ccc(NC(CCN6CCC(C(=O)OCCCP(=O)(O)O)CC6)CSc6ccccc6)c(S(=O)(=O)C(F)(F)F)c5)cc4)CC3)c2)c(-c2ccc(Cl)cc2)n1C(C)C
IC50 (second compound 0.0316 µM): > 3 µM | IC50 (second compound 0.1 µM): > 3 µM | IC50 (second compound 0.316 µM): > 3 µM | IC50 (second compound 1 µM): 2.02 µM | IC50 (second compound 3.16 µM): 0.443 µM | IC50 (second compound 10 µM): 0.0977 µM | viability, T/C (second compound 0.0316 µM, first compound 0.00949 µM): 85.5% | viability, T/C (second compound 0.0316 µM, first compound 0.03 µM): 99.6% | viability, T/C (second compound 0.0316 µM, first compound 0.0949 µM): 77.5% | viability, T/C (second compound 0.0316 µM, first compound 0.3 µM): 89% | viability, T/C (second compound 0.0316 µM, first compound 0.949 µM): 82.9% | viability, T/C (second compound 0.0316 µM, first compound 3 µM): 61.9% | viability, T/C (second compound 0.1 µM, first compound 0.00949 µM): 87.8% | viability, T/C (second compound 0.1 µM, first compound 0.03 µM): 100% | viability, T/C (second compound 0.1 µM, first compound 0.0949 µM): 87.2% | viability, T/C (second compound 0.1 µM, first compound 0.3 µM): 93.7% | viability, T/C (second compound 0.1 µM, first compound 0.949 µM): 84.6% | viability, T/C (second compound 0.1 µM, first compound 3 µM): 59.5% | viability, T/C (second compound 0.316 µM, first compound 0.00949 µM): 86.4% | viability, T/C (second compound 0.316 µM, first compound 0.03 µM): 93.7% | viability, T/C (second compound 0.316 µM, first compound 0.0949 µM): 87.2% | viability, T/C (second compound 0.316 µM, first compound 0.3 µM): 81.4% | viability, T/C (second compound 0.316 µM, first compound 0.949 µM): 68.9% | viability, T/C (second compound 0.316 µM, first compound 3 µM): 59.7% | viability, T/C (second compound 1 µM, first compound 0.00949 µM): 90.6% | viability, T/C (second compound 1 µM, first compound 0.03 µM): 85% | viability, T/C (second compound 1 µM, first compound 0.0949 µM): 73.4% | viability, T/C (second compound 1 µM, first compound 0.3 µM): 76.7% | viability, T/C (second compound 1 µM, first compound 0.949 µM): 64.5% | viability, T/C (second compound 1 µM, first compound 3 µM): 42.1% | viability, T/C (second compound 3.16 µM, first compound 0.00949 µM): 62.6% | viability, T/C (second compound 3.16 µM, first compound 0.03 µM): 63.2% | viability, T/C (second compound 3.16 µM, first compound 0.0949 µM): 57.4% | viability, T/C (second compound 3.16 µM, first compound 0.3 µM): 50% | viability, T/C (second compound 3.16 µM, first compound 0.949 µM): 47.3% | viability, T/C (second compound 3.16 µM, first compound 3 µM): 36.5% | viability, T/C (second compound 10 µM, first compound 0.00949 µM): 48.5% | viability, T/C (second compound 10 µM, first compound 0.03 µM): 54.4% | viability, T/C (second compound 10 µM, first compound 0.0949 µM): 52.2% | viability, T/C (second compound 10 µM, first compound 0.3 µM): 42.6% | viability, T/C (second compound 10 µM, first compound 0.949 µM): 36% | viability, T/C (second compound 10 µM, first compound 3 µM): 28.2%
